Experiment [1] concerns HeLa cells. Put plainly: Selectivity of photosensitizer: intracellular singlet oxygen detection with Si-DMA. The conditions noted are these: 25 nM Si-DMA, 640 nm, 0.6 W/cm2. It is filed as cell-based. On the procedure: Subsequently, a quick protocol provided by Molecular Probe® for introducing CellROX Green was followed. Using diluted Si-DMA and Si-Me, incubation was performed for 30 minutes to two hours by an experiment. To introduce a photosensitizer, 150 μg/mL of 5-aminolevulinic acid (5-ALA) or 10 LM TMPyP4 were incubated for four hours and 24 hours, respectively. As a result, as previously reported, the conversion of 5-ALA into protoporphyrin IX (PpIX) in the mitochondria was confirmed by the fluorescence luminescence of PpIX.
A KillerRed vector was expressed in accordance with a general Lipofectamine® 2000 (Invitrogen) protocol. More specifically, 2×10^5 Hela cells were subcultured in a 35-mm glass bottom dish. The cells reached about 50% confluent in the next day.
Subsequently, a mixed solution of Lipofectamine reagent and DNA vector was obtained by mixing 6 μL Lipofectamine® 2000 with 7 μL pKillerRed-dMitovector ([…], Evrogen, catalog No. FP964) in an Opti-MEM solution (Gibco). Thereafter, the resulting solution was incubated for 20 minutes at room temperature. 300 μL of the mixed solution was added to a growth medium, and incubated for 24 hours. The expression of KillerRed was confirmed by monitoring KillerRed fluorescence using a wide-view microscope. […]
Further, on the night before the treatment, 0.2×10^6 HeLa cells were seeded on a 35-mm dish, and pKillerRed-dMito vector (Evrogen) was introduced using Lipofectaimine®2000 (Invitrogen®), followed by 24-hour incubation as described above, thereby preparing HeLa cells containing […]. […] Light irradiation was performed for 30 seconds simultaneously at 0.5 W/cm^2 and 0.6 W/cm^2 using a 640-/532-nm laser (Coherent) and a wide-view fluorescence microscope system mounted in an IX81 inverted microscope (Olympus Corporation). […]
Further, in this Experiment Example, 60-second light irradiation was performed using three kinds of photosensitizers, and an average number of pseudo colors appeared in the photo and an increase thereof were measured. […]

Experiment [2] has as its system HeLa cells. The experiment can be described thus: Viable cell imaging / localization in organelle. It is filed as cell-based. The conditions noted are these: Si-DMA 20 nM / 100 nM, co-staining with Mito Tracker Green FM. The method, then:
A treatment requiring incubation of less than two hours was performed using a serum-free culture medium containing 20 mM of HEPES, and a treatment requiring incubation of four hours or more was performed using a blood serum-containing medium containing 20 mM of HEPES so as to maintain the cell viability. To label mitochondria, Mito Tracker® Green FM was diluted to 50 nM, and incubated for 30 minutes. Further, 10000 MW of dextran (A488- and A647-dextran) labeled with Alexa Fluor® 488 or Alexa Fluor® 647 was diluted to 50 μg/mL, and incubated for 24 hours, thereby staining lysosome.
Subsequently, a quick protocol provided by Molecular Probe® for introducing CellROX Green was followed. […] As a result, as previously reported, the conversion of 5-ALA into protoporphyrin IX (PpIX) in the mitochondria was confirmed by the fluorescence luminescence of PpIX.
In order to monitor an increase in fluorescence upon light irradiation on Si-DMA of Example 1, irradiation on reactive oxygen species was performed while monitoring the probe using an IX81 inverted fluorescence microscope (Olympus Corporation) and 640-nm CW laser (Coherent). […] The images of luminescence were collected and recorded by an EMCCD camera (Evolve 512; Roper Scientific) via a dichroic beam splitter (DI02-R635; Semrock) and a bandpass filter (HQ690/70; Chroma). […]

Turning to `Cc1c2ccccc2c(C)c2cc(C3=C4C=CC(=[N+](C)C)C=C4[Si](C)(C)c4cc(N(C)C)ccc43)ccc12` [Si-DMA], the “time to increase in fluorescence in the vicinity of the perinuclear region” value in experiment [1] (HeLa cells with PpIX (150 μg/mL 5-aminolevulinic acid, 4 h)) is at most 10 s. Also, the color rendering result in experiment [1] (HeLa cells with PpIX as photosensitizer) is listed as “clear color rendering was accomplished”. In experiment [2], the intracellular localization entry is “selectively localized in mitochondria”.

These data come from patent US10564164B2, “Fluorescent probe, singlet oxygen detection agent, and singlet oxygen detection method” (Osaka University, priority 2014, dated 2020).
